Results from PMC12432378 (Cell Reports Medicine, 2025).
Positions of bridges follow the written chain, without caps; N, C: chain ends. Non-standard residues stand in square brackets, D forms with d. Residues, ends and D or L forms follow the SMILES beside them. S5 = C=CCCC[C@](C)(N)C(=O)O

Test system: SARS-CoV-2 variants, including Delta, BA.2.75, XBB.1.16, and KP.2
Settings: BA.2.75, XBB.1.16, and KP.2, 48 h

Row | SMILES | IC50 [µM]
1 | CC[C@H](C)[C@H](NC(=O)[C@H](C)NC(=O)[C@H](CCSC)NC(=O)[C@H](CCC(=O)O)NC(=O)[C@H](CC(=O)O)NC(=O)[C@H](CO)NC(=O)[C@H](CC(C)C)NC(=O)[C@H](CC(=O)O)NC(=O)[C@H](CC(C)C)NC(=O)[C@H](CC(C)C)NC(=O)[C@@H](NC(=O)[C@@H](NC(=O)[C@H](CC(N)=O)NC(=O)[C@@H](NC(=O)[C@H](CCCCN)NC(=O)[C@H](CO)NC(=O)[C@@H](NC(=O)[C@H](CCC(=O)O)NC(C)=O)[C@@H](C)CC)[C@@H](C)CC)C(C)C)[C@@H](C)O)C(=O)N[C@@H](CC(C)C)C(=O)N[C@@H](CC(C)C)C(=O)N[C@@H](CCC(=O)O)C(=O)N[C@@H](C)C(=O)N[C@H](C(=O)N[C@@H](CCCCN)C(=O)N[C@@H](CCC(N)=O)C(=O)N[C@@H](CC(C)C)C(=O)N[C@@H](CC(N)=O)C(=O)N[C@@H](CC(=O)O)C(=O)N[C@@H](CO)C(=O)N[C@@H](Cc1ccc(O)cc1)C(=O)N[C@H](C(=O)N[C@@H](CC(=O)O)C(=O)N[C@@H](CC(C)C)C(=O)N[C@@H](CCCCN)C(=O)N[C@@H](CCC(=O)O)C(=O)N[C@@H](CC(C)C)C(N)=O)[C@@H](C)CC)[C@@H](C)CC [MjHKU4r-HR2P9] | 0.384 to 0.46
2 | CC[C@H](C)[C@H](NC(=O)[C@H](C)NC(=O)[C@H](CCSC)NC(=O)[C@H](CCC(=O)O)NC(=O)[C@H](CC(=O)O)NC(=O)[C@H](CO)NC(=O)[C@H](CC(C)C)NC(=O)[C@H](CC(=O)O)NC(=O)[C@H](CC(C)C)NC(=O)[C@H](CC(C)C)NC(=O)[C@@H](NC(=O)[C@@H](NC(=O)[C@H](CC(N)=O)NC(=O)[C@@H](NC(=O)[C@H](CCCCN)NC(=O)[C@H](CO)NC(=O)[C@@H](NC(=O)[C@H](CCC(=O)O)NC(C)=O)[C@@H](C)CC)[C@@H](C)CC)C(C)C)[C@@H](C)O)C(=O)N[C@@H](CC(C)C)C(=O)N[C@@H](CC(C)C)C(=O)N[C@@]1(C)CCCC=CCCC[C@@](C)(C(=O)N[C@@H](CC(C)C)C(=O)N[C@@H](CC(N)=O)C(=O)N[C@@H](CC(=O)O)C(=O)N[C@@H](CO)C(=O)N[C@@H](Cc2ccc(O)cc2)C(=O)N[C@H](C(=O)N[C@@H](CC(=O)O)C(=O)N[C@@H](CC(C)C)C(=O)N[C@@H](CCCCN)C(=O)N[C@@H](CCC(=O)O)C(=O)N[C@@H](CC(C)C)C(N)=O)[C@@H](C)CC)NC(=O)[C@H](CCCCN)NC(=O)[C@H]([C@@H](C)CC)NC(=O)[C@H](C)NC1=O [MjHKU4r-HR2P10] (Ac-EISKINVTLLDLSDEMAILL[S5]AIK[S5]LNDSYIDLKEL-NH2; staple 21-25) | 0.0859 to 0.192
